In PubChem BioAssay AID1963875 (Molecular Pharmacology Branch, DTP, NCI, 2024):

Tested on: KRAS-mutant PDC complex spheroid viability
Assay: Anticancer human tumor 186277-243-T-J2-PDC patient-derived colon adenocarcinoma cell line growth inhibition [KRAS2]
Details: for IC50: curve of first compound; for viability, T/C: stronger effect = lower value
In short: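 KRAS-mutant tumor cells were grown as spheroids with HUVEC endothelial cells and human MSCs as stroma. Targeted agents were tested alone and with KRAS pathway inhibitors. Doses started at or near clinical Cmax, or 10 microM, descending half-log.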

[1] = second compound 0.1 µM, first compound 0.0316 µM
[2] = second compound 0.1 µM, first compound 0.1 µM
[3] = second compound 0.1 µM, first compound 0.316 µM
[4] = second compound 0.1 µM, first compound 1 µM
[5] = second compound 0.1 µM, first compound 3.16 µM
[6] = second compound 0.1 µM, first compound 10 µM
[7] = second compound 0.316 µM, first compound 0.0316 µM
[8] = second compound 0.316 µM, first compound 0.1 µM
[9] = second compound 0.316 µM, first compound 0.316 µM
[10] = second compound 0.316 µM, first compound 1 µM
[11] = second compound 0.316 µM, first compound 3.16 µM
[12] = second compound 0.316 µM, first compound 10 µM
[13] = second compound 1 µM, first compound 0.0316 µM
[14] = second compound 1 µM, first compound 0.1 µM
[15] = second compound 1 µM, first compound 0.316 µM
[16] = second compound 1 µM, first compound 1 µM
[17] = second compound 1 µM, first compound 3.16 µM
[18] = second compound 1 µM, first compound 10 µM
[19] = second compound 3.16 µM, first compound 0.0316 µM
[20] = second compound 3.16 µM, first compound 0.1 µM
[21] = second compound 3.16 µM, first compound 0.316 µM
[22] = second compound 3.16 µM, first compound 1 µM
[23] = second compound 3.16 µM, first compound 3.16 µM
[24] = second compound 3.16 µM, first compound 10 µM
[25] = second compound 10 µM, first compound 0.0316 µM
[26] = second compound 10 µM, first compound 0.1 µM
[27] = second compound 10 µM, first compound 0.316 µM
[28] = second compound 10 µM, first compound 1 µM
[29] = second compound 10 µM, first compound 3.16 µM
[30] = second compound 10 µM, first compound 10 µM
[31] = second compound 0.1 µM, first compound 0.01 µM
[32] = second compound 0.316 µM, first compound 0.01 µM
[33] = second compound 1 µM, first compound 0.01 µM
[34] = second compound 3.16 µM, first compound 0.01 µM
[35] = second compound 10 µM, first compound 0.01 µM
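Wherever viability, T/C is given: viability read after seven days of compound exposure; 100% = DMSO vehicle-treated spheroids so lower means less viable.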

SMILES | IC50 (second compound 0.1 µM) [nM] | IC50 (second compound 0.316 µM) [nM] | IC50 (second compound 1 µM) [nM] | IC50 (second compound 3.16 µM) [nM] | viability, T/C [1] [%] | viability, T/C [2] [%] | viability, T/C [3] [%] | viability, T/C [4] [%] | viability, T/C [7] [%] | viability, T/C [8] [%] | viability, T/C [9] [%] | viability, T/C [10] [%] | viability, T/C [13] [%] | viability, T/C [14] [%] | viability, T/C [15] [%] | viability, T/C [16] [%] | viability, T/C [19] [%] | viability, T/C [20] [%] | viability, T/C [21] [%] | viability, T/C [22] [%] | other results
CC1(C)CCC(CN2CCN(c3ccc(C(=O)NS(=O)(=O)c4ccc(NCC5CCOCC5)c([N+](=O)[O-])c4)c(Oc4cnc5[nH]ccc5c4)c3)CC2)=C(c2ccc(Cl)cc2)C1 + C=CC(=O)N1CCN(c2nc(OCC3CCCN3C)nc3c2CCN(c2cccc4cccc(C)c24)C3)CC1CC#N | 2240 | 1950 | 1770 | < 31.6 | 115 | 105 | 112 | 108 | 114 | 108 | 97.8 | 105 | 119 | 101 | 115 | 98.2 | 0.28 | 1.07 | 0.22 | 0.18 | IC50 (second compound 0.0316 µM): 2130 nM; viability, T/C (second compound 0.0316 µM, first compound 0.0316 µM): 101%; viability, T/C (second compound 0.0316 µM, first compound 0.1 µM): 107%; viability, T/C (second compound 0.0316 µM, first compound 0.316 µM): 110%; viability, T/C (second compound 0.0316 µM, first compound 1 µM): 117%; viability, T/C (second compound 0.0316 µM, first compound 3.16 µM): 19.4%; viability, T/C (second compound 0.0316 µM, first compound 10 µM): 3.14%; viability, T/C [5]: 25%; viability, T/C [6]: 4.15%; viability, T/C [11]: 10.8%; viability, T/C [12]: 0.82%; viability, T/C [17]: 0.67%; viability, T/C [18]: 0.35%; viability, T/C [23]: 0.13%; viability, T/C [24]: 0.17%
CCNC(=O)CC1N=C(c2ccc(Cl)cc2)c2cc(OC)ccc2-n2c(C)nnc21 (centres undefined) + C=CC(=O)N1CCN(c2nc(=O)n(-c3c(C)ccnc3C(C)C)c3nc(-c4c(O)cccc4F)c(F)cc23)C(C)C1 | > 10000 | > 10000 | 9860 | 2730 | 108 | 117 | 121 | 162 | 103 | 101 | 125 | 155 | 95.2 | 103 | 126 | 138 | 88.9 | 87.1 | 107 | 101 | IC50 (second compound 10 µM): 306 nM; viability, T/C [5]: 132%; viability, T/C [6]: 101%; viability, T/C [11]: 121%; viability, T/C [12]: 87.9%; viability, T/C [17]: 102%; viability, T/C [18]: 49.4%; viability, T/C [23]: 43.3%; viability, T/C [24]: 14.7%; viability, T/C [25]: 75.8%; viability, T/C [26]: 87.1%; viability, T/C [27]: 46.7%; viability, T/C [28]: 18.4%; viability, T/C [29]: 9.07%; viability, T/C [30]: 4.83%
CCNC(=O)CC1N=C(c2ccc(Cl)cc2)c2cc(OC)ccc2-n2c(C)nnc21 (centres undefined) + CC1OCC2(CCN(c3cnc(Sc4ccnc(N)c4Cl)c(N)n3)CC2)C1N | 5830 | 1050 | 338 | 155 | 92.5 | 104 | 144 | 92.7 | 108 | 121 | 103 | 50.6 | 97.6 | 128 | 52.2 | 16.2 | 109 | 67.8 | 20.9 | 7.45 | IC50 (second compound 10 µM): 51 nM; viability, T/C [5]: 66%; viability, T/C [6]: 37%; viability, T/C [11]: 26.5%; viability, T/C [12]: 16.8%; viability, T/C [17]: 14%; viability, T/C [18]: 8.15%; viability, T/C [23]: 4.82%; viability, T/C [24]: 4.45%; viability, T/C [25]: 64.2%; viability, T/C [26]: 30%; viability, T/C [27]: 9.5%; viability, T/C [28]: 4.12%; viability, T/C [29]: 3.89%; viability, T/C [30]: 2.6%
CCN1CCN(Cc2ccc(Nc3ncc(F)c(-c4cc(F)c5nc(C)n(C(C)C)c5c4)n3)nc2)CC1 + C=CC(=O)N1CCN(c2nc(=O)n(-c3c(C)ccnc3C(C)C)c3nc(-c4c(O)cccc4F)c(F)cc23)C(C)C1 | > 1000 | > 1000 | > 1000 | > 1000 | 98.4 | 129 | 158 | 96.6 | 103 | 117 | 157 | 105 | 99.7 | 113 | 153 | 99.7 | 108 | 139 | 175 | 73 | IC50 (second compound 10 µM): 571 nM; viability, T/C (second compound 0.1 µM, first compound 0.00316 µM): 107%; viability, T/C [31]: 95%; viability, T/C (second compound 0.316 µM, first compound 0.00316 µM): 104%; viability, T/C [32]: 101%; viability, T/C (second compound 1 µM, first compound 0.00316 µM): 109%; viability, T/C [33]: 103%; viability, T/C (second compound 3.16 µM, first compound 0.00316 µM): 92.2%; viability, T/C [34]: 102%; viability, T/C (second compound 10 µM, first compound 0.00316 µM): 69.1%; viability, T/C [35]: 64.8%; viability, T/C [25]: 83.3%; viability, T/C [27]: 74.1%; viability, T/C [28]: 27.5%
COC(=O)c1ccc2c(C(=Nc3ccc(N(C)C(=O)CN4CCN(C)CC4)cc3)c3ccccc3)c(O)[nH]c2c1 + CC1OCC2(CCN(c3cnc(Sc4ccnc(N)c4Cl)c(N)n3)CC2)C1N | 2140 | 1850 | 1510 | 692 | 105 | 108 | 116 | 120 | 108 | 105 | 113 | 98.9 | 116 | 108 | 100 | 74.8 | 103 | 93.2 | 94 | 29.4 | IC50 (second compound 10 µM): 368 nM; viability, T/C [5]: 18%; viability, T/C [6]: 12.9%; viability, T/C [11]: 4.62%; viability, T/C [12]: 10.2%; viability, T/C [17]: 4.4%; viability, T/C [18]: 4.44%; viability, T/C [23]: 1.17%; viability, T/C [24]: 1.68%; viability, T/C [25]: 83%; viability, T/C [26]: 82%; viability, T/C [27]: 54.5%; viability, T/C [28]: 15.6%; viability, T/C [29]: 0.48%; viability, T/C [30]: 0.71%
CC(=O)OC12COC1CC(O)C1(C)C(=O)C(O)C3=C(C)C(OC(=O)C(O)C(NC(=O)OC(C)(C)C)c4ccccc4)CC(O)(C(OC(=O)c4ccccc4)C21)C3(C)C (centres undefined) + CNCc1ccccc1-c1csc(C(C)Nc2nc(C)nc3cc(OC)c(OC)cc23)c1 | < 10 | < 10 | < 10 | < 10 | 2.89 | 2.72 | 2.61 | 2.94 | 2.44 | 2.68 | 2.5 | 2.71 | 3.7 | 3.39 | 3.25 | 3.43 | 0.05 | 0.02 | 0.03 | 0.05 | IC50 (second compound 10 µM): < 10 nM; viability, T/C [31]: 4.85%; viability, T/C [5]: 3.13%; viability, T/C [32]: 4.19%; viability, T/C [11]: 3.02%; viability, T/C [33]: 4.69%; viability, T/C [17]: 3.79%; viability, T/C [34]: 6.31%; viability, T/C [23]: 3%; viability, T/C [35]: 0.13%; viability, T/C [25]: 0.1%; viability, T/C [26]: 0.08%; viability, T/C [27]: 0.33%; viability, T/C [28]: 3.35%; viability, T/C [29]: 0.58%
